{"source": "patent US20240277705A1", "about": "“DOSAGE REGIMENS FOR ECUBECTEDIN” (PHARMA MAR S.A., priority 2021, published 2024)", "tested_on": "MEXF 1341L (melanoma)", "experiment": "Propidium iodide monolayer cell proliferation assay, MEXF 1341L", "type": "cell-based, human", "conditions": "MEXL 1341L", "description": "Cell proliferation assay: A modified propidium iodide (PI) based monolayer assay was used to assess the anti-cancer activity of the compounds (Dengler WA, Schulte J, Berger DP, Mertelsmann R, Fiebig HH, Anti-Cancer Drugs 1995, 6: 522-532). Briefly, cells were harvested from exponential phase cultures, counted and plated in 96 well flat-bottom microtiter plates at a cell density of 4,000 to 30,000 cells/well dependent on the cell line's growth rate. After a 24 h recovery period, to allow the cells to resume exponential growth, 10 μl of culture medium (4 control wells/cell line/plate) or of culture medium with test compounds were added. PM14 was applied at ten concentrations in half-log increments in duplicates up to 3.16 pM and treatment continued for four days. […] After an incubation period of 1-2 hours at room temperature, fluorescence (FU) was measured using the Enspire Multimode Plate Reader (excitation A=530 nm, emission A=620 nm) to quantify the amount of attached viable cells.\nIC50 and IC70 values were calculated by 4 parameter non-linear curve fit using Oncotest Warehouse Software. […]\nIC50 values were determined as described in Example 2, but using the following human cancer cell lines: • MEXF 276L (melanoma) • MEXF 462NL (melanoma) • MEXF 1341L (melanoma)", "data": [{"smiles": "COc1c(C)cc2c(c1O)[C@@H]1[C@@H]3[C@@H]4SC[C@]5(N[C@H](CO)Cc6c5[nH]c5ccccc65)C(=O)OC[C@@H](c5c6c(c(C)c(OC(C)=O)c54)OCO6)N3[C@@H](O)[C@H](C2)N1C", "note": "[PM14, ECUBECTEDIN]", "values": [{"measurement": "IC50", "setting": "Homo sapiens, MEXF 1341L, read-out: IC50, μM (geometric mean)", "value": 0.0004, "unit": "µM"}, {"measurement": "IC70, μM (geometric mean)", "value": 0.0006, "unit": "µM"}]}]}
